According to patent US20080226718A1, “Indole and Azaindole Derivatives For the Treatment of Inflammatory and Autoimmune Diseases” (Brane Discovery S.r.l, priority 2005, published 2008):

What was measured:
[1] = system: lymphocytes; experiment: Chemotaxis assay, lymphocytes (MIP-3β); assay type: cell-based; details: Homo sapiens, Lymphocyte, MIP-3β 100 nM, 4 h; for inhibition at 10 µM: [cpd] 10 μM, read-out: Inhibition of Chemotaxis (%) Lymphocytes (MIP3-β); for inhibition at 25 µM: [cpd] 25 μM; for inhibition at 25 µM / inhibition at 50 µM: read-out: Inhibition of Chemotaxis (%) Lymphocytes (MIP3-β) (converted); for inhibition at 50 µM: [cpd] 50 μM
Experimental: (§1) PMNs and monocytes migration was assessed using 1 or 3-μm pore size transwells (Bio-Coat Becton-Dickinson), while lymphocytes by using 5-elm pore size transwells.
(§2) Cells were in RPMI1640, containing 10% heat-inactivated Fetal Calf Serum (FCS) and 20 mM HEPES, pH 7.3, at 2×10^6/ml. 100 μl of cell suspension were added to the top well, and 600 μl of medium, containing chemoattractants and test compound, were added to the bottom well. Migration was evaluated after 2 h for PMNs and monocytes and after 4 h for lymphocytes. fMLP 10 nM (PMNs and monocytes) and MIP-3β 100 nM (lymphocytes) were utilized as chemoattractants. After fixation with 1.5% glutaraldehyde, migrated cells were counted by fluorescence-activated celli sorting using polystyrene beads (Polyscience) as an internal standard (Campbell J. J. et al. J. Cell. Biol. 134, 255-266, 1996; Laudanna C. et al. J. Biol. Chem. 273,46, 30306-30315, 1998).
(§3) Results are expressed as percentage of inhibition over control (=100%), and are the mean of three experiments.

[2] = system: lymphocytes; experiment: Chemokine-induced rapid adhesion of lymphocytes to ICAM-1 (MIP3β); assay type: cell-based; details: Homo sapiens, Lymphocyte, MIP3β 1 μM; for inhibition at 10 µM: [cpd] 10 μM, read-out: Inhibition of Adhesion (%) Lymphocytes (MIP3-β); for inhibition at 25 µM: [cpd] 25 μM; for inhibition at 25 µM / inhibition at 50 µM: read-out: Inhibition of Adhesion (%) Lymphocytes (MIP3-β) (converted); for inhibition at 50 µM: [cpd] 50 μM
Experimental: (§4) Adhesion was performed on purified integrin ligands and was evaluated as reported in Constantin G. et al., Immunity, 16, 759-769, 2000. Briefly, primary naïve lymphocytes, polymorphonuclear neutrophils (PMNs) or monocytes were isolated form healthy donors. In other experiments, murine autoreactive T cells were obtained from SJL mice immunized with PLP139-151 as described (Piccio L. et al., J. Immunol, 168, 1940-1949, 2002). Cells were resuspended at 4×10^6/ml in PBS, CaCl2, MgCl2 1 mM, 10% FCS, pH 7.2. Adhesion assays were performed on eighteen well glass slides coated overnight at 4° C. with ligands for CR3 (fibrinogen) or LFA-1 (ICAM-1). 20 μl of cell suspension were added to the wells and stimulated at 37° C. with 5 μl of agonists prior to washing, fixation and computer-assisted enumeration of bound cells.
(§5) Integrin activation was measured as induction of rapid adhesion triggered by the classical chemoattractant N-formyl-L-methionyl-L-leucyl-phenylalanine (fMLP) (100 nM) or by the CC chemokine MIP3β (CCL19, 1 μM). PMNs and monocytes were triggered to adhere to fibrinogen (CR3 ligand); naive human lymphocytes or murine encephalitogenic T cells were triggered to adhere to ICAM-1 (LFA-1 ligand). Triggered adhesion was evaluated after 2 min of stimulation under static conditions. The cells were pretreated at 37° C. for 30-60 min with the indicated concentrations of the test compound. Results are expressed as percentage of inhibition over control (=100%) and are the mean of three experiments in the case of human leukocytes. Results are expressed as mean counts and are the mean counts ±S.D of three experiments and are the mean of three experiments in the case of murine encephalitogenic lymphocytes.
(§6) Integrin activation was measured as induction of rapid adhesion triggered by the “classical” chemoattractant fMLP (100 nM) or by the CC chemokine MIP3β (CCL19, 1 μM). PMNs were triggered to adhere to fibrinogen (CR3 ligand); lymphocytes were triggered to adhere to ICAM-1 (LFA-1 ligand).

[3] = system: PMNs; experiment: Chemotaxis assay, PMNs (fMLP); assay type: cell-based; details: Homo sapiens, fMLP 10 nM, 2 h; for inhibition at 10 µM: [cpd] 10 μM; for inhibition at 25 µM: [cpd] 25 μM; for inhibition at 50 µM: [cpd] 50 μM
Experimental: as §1, §2, §3

[4] = system: monocytes; experiment: Chemokine-induced rapid adhesion of monocytes to fibrinogen (fMLP); assay type: cell-based; details: Homo sapiens, Monocyte, fMLP 100 nM; for inhibition at 10 µM: [cpd] 10 μM; for inhibition at 25 µM: [cpd] 25 μM; for inhibition at 50 µM: [cpd] 50 μM
Experimental: as §4, §5

[5] = system: PMNs; experiment: Chemokine-induced rapid adhesion of PMNs to fibrinogen (fMLP); assay type: cell-based; details: Homo sapiens, 2 min, fMLP 100 nM; for inhibition at 10 µM: [cpd] 10 μM; for inhibition at 25 µM: [cpd] 25 μM; for inhibition at 50 µM: [cpd] 50 μM
Experimental: as §4, §5, §6

[6] = system: encephalitogenic lymphocytes; experiment: Chemokine-induced adhesion of murine encephalitogenic T cells to ICAM-1; assay type: cell-based, SJL mice; details: ICAM-1; for Chemokine-induced Adhesion in encephalitogenic lymphocytes, Mean counts ± S.D., in presence of MIP3-β stimulation: 1 μM CCL19 (MIP-3beta)
Experimental: as §4, §5
Chemokines trigger rapid arrest of lymphocytes in blood vessels through pertussis toxin-sensitive G protein coupled receptors. Rapid adhesion to purified ICAM-1 was measured in in vitro adhesion assays using control/untreated cells and lymphocytes treated with concentration between 5-50 μM for 1 h. Autoreactive lymphocytes were then stimulated with 1 μM CCL19 (MIP-3beta) for 3 min. […] These compounds were already efficient in blocking adhesion using a concentration of 5 μM for the cell treatment.

[7] = system: encephalitogenic lymphocytes; experiment: Spontaneous adhesion of encephalitogenic T cells on purified ICAM-1; assay type: cell-based, SJL mice; details: Mus musculus, Lymphocyte, 1 h; for inhibition at 5 µM: [cpd] 5 μM, read-out: Inhibition of Spontaneous Adhesion in encephalitogenic lymphocytes (% of control/non-treated cells) ICAM-1; for inhibition at 10 µM: [cpd] 10 μM; for inhibition at 10 µM / inhibition at 50 µM: read-out: Inhibition of Spontaneous Adhesion in encephalitogenic lymphocytes (% of control/non-treated cells) ICAM-1 (converted); for inhibition at 50 µM: [cpd] 50 μM
Experimental: Spontaneous adhesion of encephalitogenic lymphocytes was measured in adhesion assays on purified ICAM-1 and VCAM-1 as previously described (Constantin G. et al., J. Immunol. 162, 1144-1149, 1999). Autoreactive T cells were obtained from SJL mice immunized with PLP139-151 as described (Piccio L. et al., J. Immunol. 168, 1940-1949, 2002). Lymphocytes were treated with test compound at concentrations between 5-100 μM for 1 h, while control/untreated cells were treated with vehicle (DMSO). Results are expressed as percentage of inhibition over control (=100%) ±S.D and are the mean of three-four experiments.
ICAM-1 and VCAM-1 are adhesion molecules from the family of immunoglobulins and control the migration of lymphocytes through the endothelium during inflammatory responses. Encephalitogenic T cells are activated lymphocytes displaying spontaneous adhesion on ICAM-1 and VCAM-1 and have increased migration capacities in inflammation sites. Spontaneous adhesion of encephalitogenic lymphocytes was measured in adhesion assays on purified ICAM-1 and VCAM-1 as described in the method.

[8] = system: monocytes; experiment: Chemotaxis assay, monocytes (fMLP); assay type: cell-based; details: Homo sapiens, Monocyte, fMLP 10 nM, 2 h; for inhibition at 10 µM: [cpd] 10 μM; for inhibition at 25 µM: [cpd] 25 μM; for inhibition at 50 µM: [cpd] 50 μM
Experimental: as §1, §2, §3

SMILES	inhibition at 10 µM [1]	inhibition at 25 µM [1]	inhibition at 50 µM [1]	inhibition at 10 µM [2]	inhibition at 25 µM [2]	inhibition at 50 µM [2]	inhibition at 10 µM [3]	inhibition at 25 µM [3]	inhibition at 50 µM [3]	inhibition at 10 µM [4]	inhibition at 25 µM [4]	inhibition at 50 µM [4]	inhibition at 10 µM [5]	inhibition at 25 µM [5]	inhibition at 50 µM [5]	inhibition at 5 µM [7]	inhibition at 10 µM [7]	inhibition at 50 µM [7]	inhibition at 10 µM [8]	inhibition at 25 µM [8]	other results
COc1ccc(-c2c(C#N)n(CCCN(C)C)c3cc(OC)c(OC)cc23)cc1 [Example 55]	43.7%	84.2%	91.2%	80%	91.9%	97%	79.4%	94.2%	96.8%	7.7%	38.5%	97.9%	8.4%	19%	27.4%	7.6%	12.4%	96.4%	54.6%	89.2%	Chemokine-induced Adhesion in encephalitogenic lymphocytes, Mean counts ± S.D., in presence of MIP3-β stimulation ([6]; [cpd] 10 μM): 98.3 ± 13.7; Adhesion in encephalitogenic lymphocytes, Mean counts ± S.D., in absence of MIP3-β stimulation ([6]; [cpd] 10 μM): 53.5 ± 3.5; Chemokine-induced Adhesion in encephalitogenic lymphocytes, Mean counts ± S.D., in presence of MIP3-β stimulation ([6]; [cpd] 50 μM): 46.9 ± 6.2; Adhesion in encephalitogenic lymphocytes, Mean counts ± S.D., in absence of MIP3-β stimulation ([6]; [cpd] 50 μM): 13.2 ± 3.7; inhibition at 50 µM [8]: 92.9%
CCOC(=O)CCc1[nH]c2cc(OC)c(OC)cc2c1-c1ccc(OC)cc1 [Example 22]	47.9%	84.6%	94.7%	65%	95.6%	97.1%	56.9%	88.7%	97.8%	9.5%	29.6%	42.6%	2.6%	13.8%	32.6%	39.9%	61.3%	94.7%	23.7%	80.1%	Chemokine-induced Adhesion in encephalitogenic lymphocytes, Mean counts ± S.D., in presence of MIP3-β stimulation ([6]; [cpd] 10 μM): 74.1 ± 6.4; Adhesion in encephalitogenic lymphocytes, Mean counts ± S.D., in absence of MIP3-β stimulation ([6]; [cpd] 10 μM): 44.2 ± 5.7; Chemokine-induced Adhesion in encephalitogenic lymphocytes, Mean counts ± S.D., in presence of MIP3-β stimulation ([6]; [cpd] 50 μM): 48.0 ± 6.4; inhibition at 50 µM [8]: 96.4%
COc1cc2[nH]c(-c3nnc[nH]3)c(-c3ccccc3)c2cc1OC [Example 58]	49.3%	82.9%	92.2%	92.1%	93.9%	94.7%	53.9%	87.5%	97.9%	6.8%	10.6%	16.6%	33.1%	45%	61.4%	40.7%	49.5%	95.6%	51.7%	87.5%	Chemokine-induced Adhesion in encephalitogenic lymphocytes, Mean counts ± S.D., in presence of MIP3-β stimulation ([6]; [cpd] 10 μM): 73.2 ± 5.5; Adhesion in encephalitogenic lymphocytes, Mean counts ± S.D., in absence of MIP3-β stimulation ([6]; [cpd] 10 μM): 48.7 ± 6.5; Chemokine-induced Adhesion in encephalitogenic lymphocytes, Mean counts ± S.D., in presence of MIP3-β stimulation ([6]; [cpd] 50 μM): 46.8 ± 4.7; Adhesion in encephalitogenic lymphocytes, Mean counts ± S.D., in absence of MIP3-β stimulation ([6]; [cpd] 50 μM): 19.8 ± 5.8; inhibition at 50 µM [8]: 97.8%
COc1ccc(-c2c(-c3nnc(C)o3)[nH]c3cc(OC)c(OC)cc23)cc1 [Example 77]	13.6%	25.4%	33.8%	15.9%	20.7%	30.5%	51.3%	49.4%	59.5%	3.5%	33.4%	50.8%	17.4%	24.7%	30.5%	25.9%	34.8%	95.9%	40.6%	48.9%	inhibition at 50 µM [8]: 59%
